The values below come from patent US20240174674A1, “NITROGEN-CONTAINING POLYCYCLIC FUSED RING COMPOUND, PHARMACEUTICAL COMPOSITION THEREOF, PREPARATION METHOD THEREFOR, AND USE THEREOF” (APPLIED PHARMACEUTICAL SCIENCE, INC., priority 2021, published 2024).

The IC50 is the concentration at which inhibition is half-maximal.

Where two headings read alike, the source gives them in different places.

In this assay the target is RET G810R (Homo sapiens (Human), UniProt P07949, G810R). Briefly: HTRF KinEASE-TK kinase activity test, RET G810R. Particulars: for inhibitory activity against RET G810R relative to that of selpercatinib (LOXO-292): fold versus selpercatinib (LOXO-292). For orientation: Time-resolved FRET reads energy transfer from a long-lived donor to a nearby acceptor.
[1] abbreviates: read-out: RET G810R IC50, HTRF kinase assay.

Chain of RET G810R (P07949 29-1114 G810R): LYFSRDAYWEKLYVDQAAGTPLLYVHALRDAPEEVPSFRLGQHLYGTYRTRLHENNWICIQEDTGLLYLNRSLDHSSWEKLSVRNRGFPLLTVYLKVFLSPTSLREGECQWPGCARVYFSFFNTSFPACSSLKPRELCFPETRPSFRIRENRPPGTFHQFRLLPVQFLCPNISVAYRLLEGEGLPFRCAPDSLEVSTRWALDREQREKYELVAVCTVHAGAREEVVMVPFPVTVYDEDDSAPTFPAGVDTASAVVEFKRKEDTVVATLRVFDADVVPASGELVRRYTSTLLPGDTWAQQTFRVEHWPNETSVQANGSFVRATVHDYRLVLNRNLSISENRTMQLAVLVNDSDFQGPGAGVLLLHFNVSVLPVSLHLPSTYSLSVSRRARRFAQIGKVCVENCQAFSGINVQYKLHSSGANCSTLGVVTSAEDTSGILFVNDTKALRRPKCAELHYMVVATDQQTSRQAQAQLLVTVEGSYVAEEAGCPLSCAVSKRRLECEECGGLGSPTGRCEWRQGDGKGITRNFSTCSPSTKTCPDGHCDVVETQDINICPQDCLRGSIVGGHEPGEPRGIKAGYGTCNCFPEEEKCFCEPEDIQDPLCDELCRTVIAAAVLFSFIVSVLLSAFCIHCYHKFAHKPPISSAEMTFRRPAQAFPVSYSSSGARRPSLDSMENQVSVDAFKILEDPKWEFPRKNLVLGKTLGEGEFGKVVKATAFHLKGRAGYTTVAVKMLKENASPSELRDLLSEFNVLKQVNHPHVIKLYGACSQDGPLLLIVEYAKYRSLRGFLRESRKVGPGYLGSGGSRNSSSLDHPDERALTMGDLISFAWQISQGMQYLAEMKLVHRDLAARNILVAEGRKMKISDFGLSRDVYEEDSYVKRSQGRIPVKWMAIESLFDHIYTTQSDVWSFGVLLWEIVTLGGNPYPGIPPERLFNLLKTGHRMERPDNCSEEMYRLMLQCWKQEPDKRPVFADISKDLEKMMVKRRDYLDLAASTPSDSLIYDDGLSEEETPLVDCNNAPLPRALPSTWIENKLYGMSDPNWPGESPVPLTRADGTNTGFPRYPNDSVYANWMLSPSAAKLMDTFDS

As for `CCOc1cc(-c2ccc(N3CCC(C)(NC(=O)c4cc(F)ccc4C)CC3)nc2)c2c3cn[nH]c3nn2c1` [Compound 1, N-(1-(5-(6-ethoxy-1H-pyrazolo[3′,4′:3,4]pyrazolo[1,5-α]pyridin-4-yl)pyridin-2-yl)-4-methylpiperidin-4-yl)-5-fluoro-2-methylbenzamide], the IC50 under setting [1] turned out to be 6.5 nM. On the same count and under the same terms, as for `CCOc1cc(-c2ccc(N3CCC(Oc4ccc(OC)nn4)CC3)nc2)c2c3cn[nH]c3nn2c1` [Compound 8], the figure is 8.7 nM.

Consider `CCOc1cc(-c2ccc(N3CCC(CO)(NC(=O)c4ncccc4Cl)CC3)nc2)c2c3cn[nH]c3nn2c1` [Compound 12, 3-chloro-N-(1-(5-(6-ethoxy-1H-pyrazolo[3′,4′:3,4]pyrazolo[1,5-α]pyridin-4-yl)pyridin-2-yl)-4-(hydroxymethyl)piperidin-4-yl)picolinamide], for which the “inhibitory activity against RET G810R relative to that of selpercatinib (LOXO-292)” value was not below 10 times. Also, under setting [1], the 50% inhibitory concentration (IC50) came to 2.1 nM. Taken in the same sequence, the figures for `CCOc1cc(-c2ccc(N3CCC(CN(C)C)(NC(=O)c4ncccc4Cl)CC3)nc2)c2c3cn[nH]c3nn2c1` [Compound 15, 3-chloro-N-(4-((2-dimethylamino)methyl)-1-(5-(6-ethoxy-1H-pyrazolo[3′,4′:3,4]pyrazolo[1,5-α]pyridin-4-yl)pyridin-2-yl)piperidin-4-yl)picolinamide] were not below 10 times and 1.5 nM. `CCOc1cc(-c2ccc(N3CCC(CN4CCN(CC)CC4)(NC(=O)c4cc(F)ccc4F)CC3)nc2)c2c3cn[nH]c3nn2c1` [Compound 17, N-(1-(5-(6-ethoxy-1H-pyrazolo[3′,4′:3,4]pyrazolo[1,5-α]pyridin-4-yl)pyridin-2-yl)-4-((4-ethylpiperazin-1-yl)methyl)piperidin-4-yl)-2,5-difluorobenzamide]: the “inhibitory activity against RET G810R relative to that of selpercatinib (LOXO-292)” value is not below 10 times. Under setting [1], the half-maximal inhibitory concentration (IC50) was determined as 2.1 nM. Take `CCOc1cc(-c2ccc(N3CCC(CN4CCOCC4)(NC(=O)CC(C)C)CC3)nc2)c2c3cn[nH]c3nn2c1` [Compound 29]: the IC50 under setting [1] turned out to be 8.8 nM. Turning to `CCOc1cc(-c2ccc(N3CCC(C)(S(=O)(=O)CC(C)C)CC3)nc2)c2c3cn[nH]c3nn2c1` [Compound 33, 6-ethoxy-4-(6-(4-(isobutylsulfonyl)-4-methylpiperidin-1-yl)pyridin-3-yl)-1H-pyrazolo[3′,4′:3,4]p yrazolo[1,5-α]pyridine], the “inhibitory activity against RET G810R relative to that of selpercatinib (LOXO-292)” value was not below 10 times. In addition, the IC50 under setting [1] was found to be 2.5 nM. With `CCOc1cc(-c2ccc(N3CCC(S(=O)(=O)Cc4ccccc4)CC3)nc2)c2c3cn[nH]c3nn2c1` [Compound 34], under setting [1], the concentration for half-maximal inhibition (IC50) was 4.9 nM. `CCOc1cc(-c2ccc(N3CCC(CN(C)C)(C(=O)NCC(C)C)CC3)nc2)c2c3cn[nH]c3nn2c1` [Compound 35, 4-((dimethylamino)methyl)-1-(5-(6-ethoxy-1H-pyrazolo[3′,4′:3,4]pyrazolo[1,5-α]pyridin-4-yl)pyridin-2-yl)-N-isobutylpiperidine-4-carboxamide]: the IC50 under setting [1] turned out to be 5.1 nM. Regarding `CCOc1cc(-c2ccc(N3CCC(CN4CCC4)(C(=O)NCC(C)C)CC3)nc2)c2c3cn[nH]c3nn2c1` [Compound 36, 4-(azetidin-1-ylmethyl)-1-(5-(6-ethoxy-1H-pyrazolo[3′,4′:3,4]pyrazolo[1,5-α]pyridin-4-yl)pyridin-2-yl)-N-isobutylpiperidine-4-carboxamide], under setting [1], the half-maximal inhibitory concentration (IC50) was found to be 5.7 nM. Take `CCOc1cc(-c2ccc(N3CCC(CN4CCCC4)(C(=O)NCC(C)C)CC3)nc2)c2c3cn[nH]c3nn2c1` [Compound 37, 4-(pyrrolidin-1-ylmethyl)-1-(5-(6-ethoxy-1H-pyrazolo[3′,4′:3,4]pyrazolo[1,5-α]pyridin-4-yl)pyridin-2-yl)-N-isobutylpiperidine-4-carboxamide]: under setting [1], the IC50 was determined as 6.3 nM.

As to `CCOc1cc(-c2ccc(N3CC[C@H](NC(=O)c4cc(F)ccc4Cl)[C@@H](O)C3)nc2)c2c3cn[nH]c3nn2c1` [Compound 43], the “inhibitory activity against RET G810R relative to that of selpercatinib (LOXO-292)” value was not below 10 times. In addition, the half-maximal inhibitory concentration (IC50) under setting [1] turned out to be 1.9 nM.

Consider `CCOc1cc(-c2ccc(N3CC[C@H](NC(=O)c4ncccc4C(F)(F)F)[C@@H](O)C3)nc2)c2c3cn[nH]c3nn2c1` [Compound 45], for which the IC50 under setting [1] was 5.2 nM. As for `CCOc1cc(-c2ccc(N3CC[C@H](NC(=O)c4c(C)cccc4Cl)[C@@H](N)C3)nc2)c2c3cn[nH]c3nn2c1` [Compound 48, N-((3S,4S)-3-amino-1-(5-(6-ethoxy-1H-pyrazolo[3′,4′:3,4]pyrazolo[1,5-α]pyridin-4-yl)pyridin-2-yl)piperidin-4-yl)-2-chloro-6-methylbenzamide], the “inhibitory activity against RET G810R relative to that of selpercatinib (LOXO-292)” value was not below 10 times. Besides, the half-inhibitory concentration (IC50) under setting [1] is 2.9 nM. Consider `CCOc1cc(-c2cnc(N3CC[C@H](NC(=O)c4ncccc4Cl)[C@@H](O)C3)cn2)c2c3cn[nH]c3nn2c1` [Compound 50], for which the IC50 under setting [1] came to 17.9 nM. On the same count and under the same terms, as for `CCOc1cc(-c2cnc(N3CC[C@H](NC(=O)c4c(F)cccc4Cl)[C@@H](O)C3)cn2)c2c3cn[nH]c3nn2c1` [Compound 51], the figure is 4.3 nM; as for `CCOc1cc(-c2cnc(N3CCC(C)(NC(=O)c4ncc(F)cc4Cl)CC3)cn2)c2c3cn[nH]c3nn2c1` [Compound 55, 3-chloro-N-(1-(5-(6-ethoxy-1H-pyrazolo[3′,4′:3,4]pyrazolo[1,5-α]pyridin-4-yl)pyrazin-2-yl)-4-methylpiperidin-4-yl)-5-fluoro-2-picolinamide], 4.5 nM. As for `CCOc1cc(-c2cnc(N3CCC(C)(NC(=O)c4nc(C)ccc4Cl)CC3)cn2)c2c3cn[nH]c3nn2c1` [Compound 56], under setting [1], the 50% inhibitory concentration (IC50) is 23.6 nM.

Consider `CCOc1cc(-c2cnc(N3CCC(C)(NC(=O)c4c(F)ccc(F)c4F)CC3)cn2)c2c3cn[nH]c3nn2c1` [Compound 57, N-(1-(5-(6-ethoxy-1H-pyrazolo[3′,4′:3,4]pyrazolo[1,5-α]pyridin-4-yl)pyrazin-2-yl)-4-methylpiperidin-4-yl)-2,3,6-trifluorobenzamide], for which the IC50 under setting [1] amounted to 6.9 nM. Turning to `CCOc1cc(-c2cnc(N3CCC(C)(NC(=O)c4cc(F)ccc4Cl)CC3)cn2)c2c3cn[nH]c3nn2c1` [Compound 58, 2-chloro-N-(1-(5-(6-ethoxy-1H-pyrazolo[3′,4′:3,4]pyrazolo[1,5-α]pyridin-4-yl)pyrazin-2-yl)-4-methylpiperidin-4-yl)-5-fluorobenzamide], the IC50 under setting [1] was determined as 5.6 nM.

With `CCOc1cc(-c2cnc(N3CCC(C)(NC(=O)c4ncccc4Cl)CC3)cn2)c2c3cn[nH]c3nn2c1` [Compound 59, 3-chloro-N-(1-(5-(6-ethoxy-1H-pyrazolo[3′,4′:3,4]pyrazolo[1,5-α]pyridin-4-yl)pyrazin-2-yl)-4-methylpiperidin-4-yl)-2-picolinamide], half-maximal inhibition (IC50) required 4.6 nM. `CCOc1cc(-c2ccc(N3CCC(CO)(C(=O)NCC(C)C)CC3)nc2)c2c3cn[nH]c3nn2c1` [Compound 87, 1-(5-(6-ethoxy-1H-pyrazolo[3′,4′:3,4]pyrazolo[1,5-α]pyridin-4-yl)pyridin-2-yl)-4-(hydroxymethy 1)-N-isobutylpiperidine-4-carboxamide]: under setting [1], the IC50 is 9.4 nM.

Regarding `CCOc1cc(-c2ccc(N3CC[C@H](NC(=O)C(C)C(C)C)[C@@H](O)C3)nc2)c2c3cn[nH]c3nn2c1` (stereo partly drawn) [Compound 89], the “inhibitory activity against RET G810R relative to that of selpercatinib (LOXO-292)” value was not below 10 times. Besides, the IC50 under setting [1] was 2 nM.
